Experimental data taken from the supplement of paper PMC10307832.

Experiments:
Experiment in all cases: relative viability (nuclei count vs DMSO), 5 days (fraction); higher = more cells survive
201T = tested on: 201T
Summary of the method: (§1)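 For relative viability, nuclei counts in treated wells were divided by those in vehicle wells. Lung cancer cell lines had been pin-tool dosed in 1536-well plates the day after seeding and cultured for 5 days, then fixed and stained in one step (final 0.05% Triton X-100, 1% formaldehyde, 1 ug/ml Hoechst) and imaged at 4×. Doses were one drug alone or a fixed anchor-drug dose plus five library-drug doses (not always all listed) in √10 steps, and values are duplicate-plate medians.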

COR-L23 = tested on: COR-L23
Summary of the method: as §1

EKVX = tested on: EKVX
Summary of the method: as §1

EPLC-272H = tested on: EPLC-272H
Summary of the method: as §1

HCC-44 = tested on: HCC-44
Summary of the method: as §1

LOU-NH91 = tested on: LOU-NH91
Summary of the method: as §1

NCI-H1650 = tested on: NCI-H1650
Summary of the method: as §1

NCI-H1734 = tested on: NCI-H1734
Summary of the method: as §1

NCI-H1793 = tested on: NCI-H1793
Summary of the method: as §1

NCI-H1993 = tested on: NCI-H1993
Summary of the method: as §1

NCI-H2023 = tested on: NCI-H2023
Summary of the method: as §1

NCI-H2085 = tested on: NCI-H2085
Summary of the method: as §1

NCI-H2170 = tested on: NCI-H2170
Summary of the method: as §1

NCI-H2347 = tested on: NCI-H2347
Summary of the method: as §1

NCI-H2405 = tested on: NCI-H2405
Summary of the method: as §1

NCI-H3122 = tested on: NCI-H3122
Summary of the method: as §1

NCI-H441 = tested on: NCI-H441
Summary of the method: as §1

NCI-H520 = tested on: NCI-H520
Summary of the method: as §1

NCI-H647 = tested on: NCI-H647
Summary of the method: as §1

PC-14 = tested on: PC-14
Summary of the method: as §1

RERF-LC-KJ = tested on: RERF-LC-KJ
Summary of the method: as §1

SW 900 = tested on: SW 900
Summary of the method: as §1

**Q.** Which results are given for `COc1cc(N2CCC(C(N)=O)CC2)ccc1Nc1nc(N)c(Cl)c(Nc2ccccc2S(=O)(=O)C(C)C)n1` [HG-5-88-01] + CC(=O)Nc1cccc(-n2c(=O)n(C3CC3)c(=O)c3c(Nc4ccc(I)cc4F)n(C)c(=O)c(C)c32)c1 [Trametinib] (partner 0.02 µM)?
**A.** relative viability (201T; first compound 0.04 µM): 0.697; relative viability (201T; first compound 0.1265 µM): 0.699; relative viability (201T; first compound 1.265 µM): 0.694; relative viability (201T; first compound 4 µM): 0.782; relative viability (COR-L23; first compound 0.04 µM): 0.502; relative viability (COR-L23; first compound 0.1265 µM): 0.664; relative viability (COR-L23; first compound 0.4 µM): 0.51; relative viability (COR-L23; first compound 1.265 µM): 0.488; relative viability (COR-L23; first compound 4 µM): 0.368; relative viability (EKVX; first compound 0.04 µM): 0.367; relative viability (EKVX; first compound 0.1265 µM): 0.36; relative viability (EKVX; first compound 0.4 µM): 0.278; relative viability (EKVX; first compound 4 µM): 0.266; relative viability (EPLC-272H; first compound 0.04 µM): 0.316; relative viability (EPLC-272H; first compound 0.1265 µM): 0.308; relative viability (EPLC-272H; first compound 0.4 µM): 0.279; relative viability (EPLC-272H; first compound 1.265 µM): 0.205; relative viability (EPLC-272H; first compound 4 µM): 0.0984; relative viability (HCC-44; first compound 0.04 µM): 1.04; relative viability (HCC-44; first compound 0.1265 µM): 1.03; relative viability (HCC-44; first compound 0.4 µM): 1.1; relative viability (HCC-44; first compound 1.265 µM): 1.07; relative viability (HCC-44; first compound 4 µM): 1.01; relative viability (LOU-NH91; first compound 0.04 µM): 0.74; relative viability (LOU-NH91; first compound 0.1265 µM): 0.787; relative viability (LOU-NH91; first compound 0.4 µM): 0.602; relative viability (LOU-NH91; first compound 1.265 µM): 0.567; relative viability (LOU-NH91; first compound 4 µM): 0.579; relative viability (NCI-H1650; first compound 0.04 µM): 0.586; relative viability (NCI-H1650; first compound 0.1265 µM): 0.633; relative viability (NCI-H1650; first compound 0.4 µM): 0.559; relative viability (NCI-H1650; first compound 1.265 µM): 0.386; relative viability (NCI-H1650; first compound 4 µM): 0.532; relative viability (NCI-H1734; first compound 0.04 µM): 0.669; relative viability (NCI-H1734; first compound 0.1265 µM): 0.755; relative viability (NCI-H1734; first compound 0.4 µM): 0.643; relative viability (NCI-H1734; first compound 1.265 µM): 0.623; relative viability (NCI-H1734; first compound 4 µM): 0.621; relative viability (NCI-H1793; first compound 0.04 µM): 0.433; relative viability (NCI-H1793; first compound 0.1265 µM): 0.381; relative viability (NCI-H1793; first compound 0.4 µM): 0.462; relative viability (NCI-H1793; first compound 1.265 µM): 0.432; relative viability (NCI-H1793; first compound 4 µM): 0.578; relative viability (NCI-H1993; first compound 0.04 µM): 0.413; relative viability (NCI-H1993; first compound 0.1265 µM): 0.458; relative viability (NCI-H1993; first compound 0.4 µM): 0.447; relative viability (NCI-H1993; first compound 4 µM): 0.45; relative viability (NCI-H2023; first compound 0.04 µM): 0.563; relative viability (NCI-H2023; first compound 0.1265 µM): 0.535; relative viability (NCI-H2023; first compound 0.4 µM): 0.475; relative viability (NCI-H2023; first compound 1.265 µM): 0.364; relative viability (NCI-H2023; first compound 4 µM): 0.2; relative viability (NCI-H2085; first compound 0.04 µM): 0.613; relative viability (NCI-H2085; first compound 0.1265 µM): 0.553; relative viability (NCI-H2085; first compound 0.4 µM): 0.502; relative viability (NCI-H2085; first compound 1.265 µM): 0.478; relative viability (NCI-H2085; first compound 4 µM): 0.432; relative viability (NCI-H2170; first compound 0.04 µM): 0.961; relative viability (NCI-H2170; first compound 0.1265 µM): 0.964; relative viability (NCI-H2170; first compound 0.4 µM): 0.894; relative viability (NCI-H2170; first compound 1.265 µM): 0.672; relative viability (NCI-H2170; first compound 4 µM): 1.03; relative viability (NCI-H2347; first compound 0.04 µM): 0.324; relative viability (NCI-H2347; first compound 0.1265 µM): 0.284; relative viability (NCI-H2347; first compound 0.4 µM): 0.227; relative viability (NCI-H2347; first compound 1.265 µM): 0.229; relative viability (NCI-H2347; first compound 4 µM): 0.247; relative viability (NCI-H2405; first compound 0.04 µM): 0.676; relative viability (NCI-H2405; first compound 0.1265 µM): 0.706; relative viability (NCI-H2405; first compound 0.4 µM): 0.529; relative viability (NCI-H2405; first compound 1.265 µM): 0.455; relative viability (NCI-H2405; first compound 4 µM): 0.545; relative viability (NCI-H3122; first compound 0.04 µM): 0.223; relative viability (NCI-H3122; first compound 0.1265 µM): 0.169; relative viability (NCI-H3122; first compound 0.4 µM): 0.154; relative viability (NCI-H3122; first compound 1.265 µM): 0.132; relative viability (NCI-H3122; first compound 4 µM): 0.0965; relative viability (NCI-H441; first compound 0.04 µM): 0.543; relative viability (NCI-H441; first compound 0.1265 µM): 0.428; relative viability (NCI-H441; first compound 0.4 µM): 0.455; relative viability (NCI-H441; first compound 1.265 µM): 0.345; relative viability (NCI-H441; first compound 4 µM): 0.336; relative viability (NCI-H520; first compound 0.04 µM): 0.568; relative viability (NCI-H520; first compound 0.1265 µM): 0.831; relative viability (NCI-H520; first compound 0.4 µM): 0.617; relative viability (NCI-H520; first compound 1.265 µM): 0.74; relative viability (NCI-H520; first compound 4 µM): 0.634; relative viability (NCI-H647; first compound 0.04 µM): 0.436; relative viability (NCI-H647; first compound 0.1265 µM): 0.444; relative viability (NCI-H647; first compound 1.265 µM): 0.488; relative viability (NCI-H647; first compound 4 µM): 0.527; relative viability (PC-14; first compound 0.04 µM): 0.825; relative viability (PC-14; first compound 0.1265 µM): 0.836; relative viability (PC-14; first compound 0.4 µM): 0.626; relative viability (PC-14; first compound 1.265 µM): 0.28; relative viability (PC-14; first compound 4 µM): 0.0722; relative viability (RERF-LC-KJ; first compound 0.04 µM): 0.79; relative viability (RERF-LC-KJ; first compound 0.1265 µM): 0.902; relative viability (RERF-LC-KJ; first compound 0.4 µM): 0.744; relative viability (RERF-LC-KJ; first compound 1.265 µM): 0.713; relative viability (RERF-LC-KJ; first compound 4 µM): 0.714; relative viability (SW 900; first compound 0.04 µM): 0.941; relative viability (SW 900; first compound 0.1265 µM): 0.943; relative viability (SW 900; first compound 0.4 µM): 0.875; relative viability (SW 900; first compound 1.265 µM): 0.627; relative viability (SW 900; first compound 4 µM): 0.685
